Data from US11766496B2, “Antimicrobial fabric freshening compositions containing octenidine dihydrochloride” (The Procter & Gamble Company, priority 2019, dated 2023).
≈ marks a conversion by molar mass, not a printed value.

Legend:
Assay type in all cases: cell-based
[1] = test system: Escherichia coli (E. coli—ATCC #8739); assay: Minimum Biocidal Concentration (MBC) in suspension
Method: (§1) The antimicrobial efficacy of the antimicrobial agent in the composition is determined by measuring its Minimum Biocidal Concentration (MBC). The MBC is defined as the lowest absolute concentration of the particular antimicrobial active which provides complete kill (zero bacterial growth). The MBC of the compositions herein was determined against the bacterium, Staphylococcus aureus (S. aureus—ATCC #6538), a gram positive bacterium, and against Escherichia coli (E. coli—ATCC #8739), a gram negative bacterium. These microorganisms are representative of natural contaminants in many consumer and industrial applications. The bacteria inoculum was prepared by transferring several colonies from a Tryptone Soy Agar (TSA) plate to a saline solution (0.85% NaCl), the bacteria concentration in this saline solution was determined by measuring the % Transmittance at 425 nm and adjusted by either adding more bacteria or more saline solution until the % Transmittance at 425 nm was between 23-25% for S. aureus, and between 30-32% for E. coli, this % transmittance corresponds to a bacteria concentration of 10^8 CFU/ml. […] Each subsequent well (rows B to G) were dosed with 100 μL of the same fabric refresher composition, without the addition of the antimicrobial agent. 100 μL of the fabric refresher composition comprising the antimicrobial active was transferred from row A to row B and mixed. 100 μL of the composition was then transferred from row B to row C and mixed, and the process repeated to row G. As such, the concentration of the antimicrobial agent underwent two-fold dilution in adjacent wells, while the concentration of the other actives in the fabric refresher composition remained constant across all the wells in the same column. 10 μL of the 10^8 CFU/ml bacteria suspension in saline was added to wells A to F of the microtiter plate with row G kept as a nil bacteria control. The final volume in each well was 110 μL, except for row G which comprised 100 μL of the fabric refresher composition and no bacteria suspension. […] The plate was incubated at 32.5° C. for 48 h. MBC concentration is taken as the lowest concentration of the antimicrobial active at which no visible colony growth is observed on the TSA plate. The antibacterial efficacy of the bispyridinium alkane octenidine hydrochloride was compared to that of quaternary ammonium and alkylamine antimicrobial compounds in two fabric freshening compositions.

[2] = test system: Staphylococcus aureus (S. aureus—ATCC #6538); assay: Minimum Biocidal Concentration (MBC) in suspension
Method: as §1

[3] = test system: Staphylococcus aureus (S. aureus—ATCC #6538); assay: Antibacterial efficacy on fabrics (cotton carriers); details: cotton fabric carriers; 0.05% antimicrobial active; 10 mins contact time; 5% horse serum soil load
Method: The bactericidal efficacy on fabric surfaces of fabric refresher compositions comprising different antimicrobial agents was determined against the bacterium, Staphylococcus aureus (S. aureus—ATCC #6538). The bacteria inoculum was prepared by transferring several colonies from a Tryptone Soy Agar (TSA) plate to a saline solution (0.85% NaCl) comprising 5% horse serum as additional soil load, the bacteria concentration in this saline solution was determined by measuring the % Transmittance at 425 nm and adjusted by either adding more bacteria or more saline solution until the % Transmittance at 425 nm is between 23-25% which corresponds to a bacteria concentration of 10^8 CFU/ml.
Fabric carriers, 1 cm×1 cm disks of cotton sterilized by autoclaving, were inoculated with 50 μL of the 10^8 CFU/ml bacteria inoculum and incubated for 30 mins at 32° C. After this incubation period, fabric carriers were treated with 2.5 ml of different fabric refresher compositions comprising no antimicrobial active (reference), or 0.05% of either bispyridinium alkane (octenidine dihydrochloride) or N-(3-aminopropyl)-N-dodecylpropane-1,3-diamine (Lonzabac 12.30) as antimicrobial actives. […] 100 μL of each of the serial dilutions were plated on a TSA plate, plates were incubated at 32° C. for 48 hours, after this incubation time, the number of colonies in each plate was counted. […]

[4] = in fabric freshening Composition 1, 20 minutes contact time
[5] = in fabric freshening Composition 2, 20 minutes contact time

Row | Compound | MBC (ppm) against E. coli [1, 4] [ppm] | MBC (ppm) against E. coli [1, 5] [ppm] | MBC (ppm) against S. aureus [2, 4] [ppm] | MBC (ppm) against S. aureus [2, 5] [ppm] | Number of bacteria extracted from treated fabrics [3] | MBC ([1]; Escherichia coli, ATCC8739, 20 min, in fabric freshening Composition 1, 20 minutes contact time, read-out: MBC (ppm) against E. coli) [µg/mL] | MBC ([2]; Staphylococcus aureus, ATCC6538, 20 min, in fabric freshening Composition 1, 20 minutes contact time, read-out: MBC (ppm) against S. aureus) [µg/mL]
1 | CCCCCCCCN=c1ccn(CCCCCCCCCCn2ccc(=NCCCCCCCC)cc2)cc1.Cl.Cl [Bispyridinium alkane (6), octenidine dihydrochloride] | 500 | 250 | 125 | 47 | no viable bacteria were recovered | – | –
2 | CCCCCCCCCCCCN(CCCN)CCCN [N-(3-aminopropyl)-N-dodecylpropane-1,3-diamine] | – | 3000 | – | 3000 | about 10^4 CFU/ml | 3000 (≈ 10 mM) | 3000 (≈ 10 mM)
3 | N-alkyl dimethyl benzyl ammonium chloride [N-alkyl dimethyl benzyl ammonium chloride (9)] | 3000 | – | 375 | – | – | – | –
4 | N-alkyl dimethyl benzyl ammonium chloride [N-alkyl dimethyl benzyl ammonium chloride (10)] | 1500 | – | 562.5 | – | – | – | –
